# Measurements from US20120095739A1, “METHOD FOR DETERMINING THE EFFICACY OF A COMBINATION THERAPY” (priority 2009, published 2012).
# System: HIV-1
# Conditions: double robust estimation; for Weight (drug weight, PI): difference in viral load response (log scale) vs lopinavir after 8 weeks of stable treatment
# From the text: Therefore, statistical models were applied to handle these differences. […] E.g.
Substance,difference in viral load change vs patients taking lopinavir (after 8 weeks of stable treatment),"Weight (drug weight, PI)"
atazanavir [ATV/r],−0.02 log viral load,−0.02
lopinavir [LPV/r],–,0
